# Patent US5677419A, “Cyclic vasoactive peptide analogs” (Hoffmann-La Roche Inc., priority 1994, dated 1997)
# Where a SMILES comes first, the peptide text is derived from it. Bridges are numbered along the chain shown (N, C = ends). [ ]: non-standard residue; d: D form. Phe(4-F) = N[C@@H](Cc1ccc(F)cc1)C(=O)O; Nle = CCCC[C@H](N)C(=O)O
# Tests used:
# [1] = test system: guinea pig tracheal smooth muscle; assay: Tracheal relaxant activity of VIP analogs on isolated guinea pig tracheal rings; format: cell-based; details: cumulative concentration response, relaxation as % of maximum response to VIP (10^-6 M=100%), three tissues pooled, linear regression
# Protocol: The relaxant activity of the VIP analogs were studied in a model utilizing guinea pig trachea. [Wasserman, M. A. et al., in Vasoactive Intestinal Peptide, S. I. Said, ed., Raven Press, New York 1982, pp 177-184] All tissues were taken from male albino guinea pig weighing 400-600 g, anesthetized with urethane (2 g/kg, i.p.). After exanguination, the trachea were removed and divided into four ring segments (3 mm length). Each ring was suspended by 30 gauge stainless steel wires in a 10 mL jacketed tissue bath and attached via 4-0 silk thread to a GRASS force displacement transducer (model FT03C, Grass Instruments Co., Quincy, Mass.), for isometric recording of tension. The smooth muscle was bathed in modified Krebs solution of the following composition: NaCl, 120 mM; KCl, 4.7 mM; CaCl2, 2.5 mM; MgSO4.7H2 O, 1.2 mM; NaHCO3, 25 mM; K2 HPO4 monobasic, 1.2 mM; and dextrose, 10 mM. Tissue baths were maintained at 37° C. and constantly bubbled with 95% O2 and 5% CO2. Responses were recorded on an 8 channel and a 4 channel HEWLETT-PACKARD (model 7702B and 7754A, respectively) recorder (Hewlett- Packard, Paramus, N.J.). Tracheal rings were placed under a resting tension of 1.5 g which was determined to be at or near optimal in preliminary experiments. Frequent readjustments of tension were required during the 60 minute stabilization period which followed. Tissues were rinsed at 15 minute intervals.
# Cumulative concentration response curves were obtained for each tissue by successive […] increases in the bath concentration of VIP or VIP analogs according to the method of VanRossum [Arch. Int. Pharmacodyn., 143, 299-330 (1963)]. Only one cumulative dose response curve was obtained on a single tissue. To minimize variability between tissues, relaxant responses were expressed as a percentage of the maximum response obtained to VIP (10^-6 M=100%) added at the end of each concentration response experiment. Responses obtained from three tissues were pooled and EC50 values were determined by linear regression.
# The results summarized in Table I show the tracheal relaxant activity of the VIP analogs in comparison to native VIP.
# guinea pigs = assay: In vivo bronchodilator activity by tracheal instillation against histamine challenge; parameters: species or system guinea pig; details: anesthetized male guinea pigs, inhibition of histamine (i.v.)-induced rise in tracheal pressure
# Protocol: The in vivo bronchodilator activity of VIP and VIP analogs in guinea pigs was assessed by the tracheal instillation route of administration. This technique utilized male guinea pigs (Hartley strain, Charles River) weighing 400-600 g. Animals were anesthetized with urethane (2 g/kg) intraperitoneally and a polyethylene cannula was inserted into the jugular vein for intraveneous drug administration.
# The animals were tracheotomized and dosing solutions of distilled water or test compound dissolved in distilled water were administered into the trachea, approximately three-quarters the distance to the carina with a pipette. The concentration of the dosing solution was adjusted to deliver a constant volume of […]. The animals were placed supine for one minute to aid drug delivery to the lung. One minute later, spontaneous breathing was arrested with succinylcholine chloride (1.2 mg/kg) administered intraveneously, and the animals were ventilated with a HARVARD Model 680 small animal respirator set at 40 breaths/min and 4.0 cm^3 stroke volume. The animals were challenged with a maximal constrictory dose of histamine ([…], i.v.) and tracheal pressure (cm of water) was recorded from a STATHAM pressure transducer (P 32 AA).
# The change in tracheal pressure was averaged for at least 3 control and 3 drug-treated animals and percent inhibition was calculated. The relative potency of compounds administered by the instillation route was determined by administering various doses of test compound and calculating the median effective dose (ED50 value). The ED50 was determined from log dose-response curves generated by at least 3 doses that caused inhibitory effects between 10% and 90%. The correlation coefficients for the regression line of each compound was always greater than 0.95.
# For determination of the time course of inhibition for various compounds, the time between administration of compound and challenge with histamine was varied. The time course of activity was calculated as the time when inhibition decreased to 40%.
# The results summarized in Table II show the in vivo bronchodilator activity of the VIP analogs in comparison to native VIP.
SMILES,EC50 [1] [nM],"Bronchodilator activity of VIP analogs in guinea pigs, ED50 (guinea pigs) [μg]"
"CCCC[C@H](NC(=O)[C@H](CCC(N)=O)NC(=O)[C@H](CCCCN)NC(=O)[C@H](CCCNC(=N)N)NC(=O)[C@H](CC(C)C)NC(=O)[C@H](CCCCN)NC(=O)[C@@H](NC(=O)[C@H](Cc1ccc(O)cc1)NC(=O)[C@H](CC(N)=O)NC(=O)[C@H](CC(=O)O)NC(=O)[C@@H](NC(=O)[C@H](Cc1ccccc1)NC(=O)[C@@H](NC(=O)[C@H](C)NC(=O)[C@H](CC(=O)O)NC(=O)[C@H](C)NC(=O)[C@H](Cc1c[nH]cn1)NC(C)=O)C(C)C)[C@@H](C)O)[C@@H](C)O)C(=O)N[C@@H](C)C(=O)N[C@@H](C)C(=O)N[C@@H](CCCCN)C(=O)N[C@H]1CCCCNC(=O)C[C@@H](C(=O)N[C@H](C(=O)N[C@@H](CC(C)C)C(=O)N[C@H](C(N)=O)[C@@H](C)O)C(C)C)NC(=O)[C@H](CC(N)=O)NC(=O)[C@H](CC(C)C)NC(=O)[C@H](Cc2ccc(O)cc2)NC1=O [SEQ ID NO:33, Ac-[Ala^2,Lys^12,Nle^17,Ala^19,Asp^25,Val^26,Thr^28]-VIP cyclo (Lys^21 →Asp^25)] (Ac-HADAVFTDNYTKLRKQ[Nle]AAKKYLNDVLT-NH2; lactam 21-25)",1.2,0.6
"CCCC[C@H](NC(=O)[C@H](CCC(N)=O)NC(=O)[C@H](CCCCN)NC(=O)[C@H](CCCNC(=N)N)NC(=O)[C@H](CC(C)C)NC(=O)[C@H](CCCCN)NC(=O)[C@@H](NC(=O)[C@H](Cc1ccc(O)cc1)NC(=O)[C@H](CC(N)=O)NC(=O)[C@H](CCC(=O)O)NC(=O)[C@@H](NC(=O)[C@H](Cc1ccc(F)cc1)NC(=O)[C@@H](NC(=O)[C@H](C)NC(=O)[C@H](CC(=O)O)NC(=O)[C@H](CO)NC(=O)[C@H](Cc1c[nH]cn1)NC(C)=O)C(C)C)[C@@H](C)O)[C@@H](C)O)C(=O)N[C@@H](C)C(=O)N[C@H](C(=O)N[C@@H](CCCCN)C(=O)N[C@H]1CCCCNC(=O)C[C@@H](C(=O)N[C@H](C(=O)N[C@@H](CC(C)C)C(=O)N[C@H](C(=O)NCC(=O)NCC(=O)N[C@H](C(N)=O)[C@@H](C)O)[C@@H](C)O)C(C)C)NC(=O)[C@H](CC(N)=O)NC(=O)[C@H](CC(C)C)NC(=O)[C@H](Cc2ccc(O)cc2)NC1=O)C(C)C [SEQ ID NO:66, Ac-[p-F-Phe^6,Glu^8,Lys^12,Nle^17,Asp^25,Val^26,Thr^28,Gly^29,30,Thr^31]-VIP cyclo (Lys^21 →Asp^25)] (Ac-HSDAV[Phe(4-F)]TENYTKLRKQ[Nle]AVKKYLNDVLTGGT-NH2; lactam 21-25)",0.57,0.12
"CCCC[C@H](NC(=O)[C@H](CCC(N)=O)NC(=O)[C@H](CCCCN)NC(=O)[C@H](CCCNC(=N)N)NC(=O)[C@H](CC(C)C)NC(=O)[C@H](CCCCN)NC(=O)[C@@H](NC(=O)[C@H](Cc1ccc(O)cc1)NC(=O)[C@H](CC(N)=O)NC(=O)[C@H](CCC(=O)O)NC(=O)[C@@H](NC(=O)[C@H](Cc1ccccc1)NC(=O)[C@@H](NC(=O)[C@H](C)NC(=O)[C@H](CC(=O)O)NC(=O)[C@H](CO)NC(=O)[C@H](Cc1c[nH]cn1)NC(C)=O)C(C)C)[C@@H](C)O)[C@@H](C)O)C(=O)N[C@@H](C)C(=O)N[C@H](C(=O)N[C@@H](CCCCN)C(=O)N[C@H]1CCCCNC(=O)C[C@@H](C(=O)N[C@@H](CC(C)C)C(=O)N[C@@H](CCCCN)C(=O)N[C@@H](CCCCN)C(=O)NCC(=O)NCC(=O)N[C@H](C(N)=O)[C@@H](C)O)NC(=O)[C@H](CC(N)=O)NC(=O)[C@H](CC(C)C)NC(=O)[C@H](Cc2ccc(O)cc2)NC1=O)C(C)C [SEQ ID NO:68, Ac-[Glu^8,Lys^12,Nle^17,Asp^25,Leu^26,Lys^27,28,Gly^29,30,Thr^31]-VIP cyclo (Lys^21 →Asp^25)] (Ac-HSDAVFTENYTKLRKQ[Nle]AVKKYLNDLKKGGT-NH2; lactam 21-25)",0.43,0.04
"CCCC[C@H](NC(=O)[C@H](CCC(N)=O)NC(=O)[C@H](CCCCN)NC(=O)[C@H](CCCNC(=N)N)NC(=O)[C@H](CC(C)C)NC(=O)[C@H](CCCCN)NC(=O)[C@@H](NC(=O)[C@H](Cc1ccc(O)cc1)NC(=O)[C@H](CC(N)=O)NC(=O)[C@H](CC(=O)O)NC(=O)[C@@H](NC(=O)[C@H](Cc1ccccc1)NC(=O)[C@@H](NC(=O)[C@H](C)NC(=O)[C@H](CC(=O)O)NC(=O)[C@H](CO)NC(=O)[C@H](Cc1c[nH]cn1)NC(C)=O)C(C)C)[C@@H](C)O)[C@@H](C)O)C(=O)N[C@@H](C)C(=O)N[C@@H](C)C(=O)N[C@@H](CCCCN)C(=O)N[C@H]1CCCCNC(=O)C[C@@H](C(=O)N[C@@H](CC(C)C)C(=O)N[C@@H](CCCCN)C(=O)N[C@@H](CCCCN)C(N)=O)NC(=O)[C@H](CC(N)=O)NC(=O)[C@H](CC(C)C)NC(=O)[C@H](Cc2ccc(O)cc2)NC1=O [SEQ ID NO:38, Ac-[Lys^12,Nle^17,Ala^19,Asp^25,Leu^26,Lys^27,28]-VIP cyclo (Lys^21 →Asp^25)] (Ac-HSDAVFTDNYTKLRKQ[Nle]AAKKYLNDLKK-NH2; lactam 21-25)",0.13,0.09

# Continued by falling EC50 [1], values first:
EC50 [1] [nM],SMILES,"Bronchodilator activity of VIP analogs in guinea pigs, ED50 (guinea pigs) [μg]"
5.3,"CCCC[C@H](NC(=O)[C@H](CCC(N)=O)NC(=O)[C@H](CCCCN)NC(=O)[C@H](CCCNC(=N)N)NC(=O)[C@H](CC(C)C)NC(=O)[C@H](CCCCN)NC(=O)[C@@H](NC(=O)[C@H](Cc1ccc(O)cc1)NC(=O)[C@H](CC(N)=O)NC(=O)[C@H](CC(=O)O)NC(=O)[C@@H](NC(=O)[C@H](Cc1ccccc1)NC(=O)[C@@H](NC(=O)[C@H](C)NC(=O)[C@H](CC(=O)O)NC(=O)[C@H](CO)NC(=O)[C@H](Cc1c[nH]cn1)NC(C)=O)C(C)C)[C@@H](C)O)[C@@H](C)O)C(=O)N[C@@H](C)C(=O)N[C@H](C(=O)N[C@H]1CCCCNC(=O)C[C@@H](C(=O)N[C@@H](CO)C(=O)N[C@H](C(=O)N[C@@H](CC(C)C)C(=O)N[C@H](C(N)=O)[C@@H](C)O)C(C)C)NC(=O)[C@H](CC(C)C)NC(=O)[C@H](Cc2ccc(O)cc2)NC(=O)[C@H](CCCCN)NC1=O)C(C)C [SEQ ID NO:27, Ac-[Lys^12,Nle^17,Asp^24,Val^26,Thr^28]-VIP cyclo (Lys^20 →Asp^24)] (Ac-HSDAVFTDNYTKLRKQ[Nle]AVKKYLDSVLT-NH2; lactam 20-24)",2.3
0.26,"CC(=O)N[C@@H](Cc1c[nH]cn1)C(=O)N[C@@H](CO)C(=O)N[C@@H](CC(=O)O)C(=O)N[C@@H](C)C(=O)N[C@H](C(=O)N[C@@H](Cc1ccccc1)C(=O)N[C@H](C(=O)N[C@@H](CCC(=O)O)C(=O)N[C@@H](CC(N)=O)C(=O)N[C@@H](Cc1ccc(O)cc1)C(=O)N[C@H](C(=O)N[C@@H](CCCCN)C(=O)N[C@@H](CC(C)C)C(=O)N[C@@H](CCCNC(=N)N)C(=O)N[C@@H](CCCCN)C(=O)N[C@@H](C)C(=O)N[C@@H](C)C(=O)N[C@@H](C)C(=O)N[C@@H](C)C(=O)N[C@@H](CCCCN)C(=O)N[C@H]1CCCCNC(=O)C[C@@H](C(=O)N[C@@H](CC(C)C)C(=O)N[C@@H](CCCCN)C(=O)N[C@@H](CCCCN)C(N)=O)NC(=O)[C@H](CC(N)=O)NC(=O)[C@H](CC(C)C)NC(=O)[C@H](Cc2ccc(O)cc2)NC1=O)[C@@H](C)O)[C@@H](C)O)C(C)C [SEQ ID NO:60, Ac-[Glu^8,Lys^12,Ala^16,17,19,Asp^25,Leu^26,Lys^27,28]-VIP cyclo (Lys^21 →Asp^25)] (Ac-HSDAVFTENYTKLRKAAAAKKYLNDLKK-NH2; lactam 21-25)",0.17
